Data as given in patent publication US8124051B2, “Complex drug delivery composition and method for treating cancer” (priority 2003, dated 2012).
Where no end group is shown, it is not given here.

How the values were obtained:
[1] = healthy tissues and tumor; cited from earlier work
[2] = test system: human ovarian carcinoma cells; experiment: Apoptosis and BCL-2 expression after DOX (cell death ELISA, RT-PCR); assay type: cell-based
Description: (§1) It has been shown that prolonged exposure or high concentrations of anticancer drugs leads to the development of drug resistance (Minko, et al. (2001) Dis. Manag. Clin. Outcomes 3:48-54; Minko, et al. (1999) J. Controlled Rel. 59:133-148; Pakunlu (2003) Pharm. Res. 20:351-359; Minko, et al. (1999) Pharm. Res. 16:986-996; Minko, et al. (2001) J. Control. Rel. 71:227-237). To analyze antiapoptotic resistance, the degree of apoptosis to doxorubicin (DOX), a traditional, well-established anticancer drug, was determined. The enrichment of cell lysate and media by mono- and oligonucleosomes was measured using a cell death detection ELISA kit. The expression of genes was measured by reverse transcription PCR (RT-PCR) using β2-microglobulin (β2-m) as an internal standard. […] Similar results were obtained after repeated incubation of human ovarian carcinoma cells with low doses of DOX (Minko, et al. (1999) supra; Minko, et al. (1999) supra) and after treatment of mice xenografts of ovarian carcinoma cells with DOX. […] Thus, suppression of this antiapoptotic cellular defense mechanism is desirable.

[3] = test system: xenografts of ovarian carcinoma cells; experiment: DOX treatment of mice xenografts of ovarian carcinoma cells; assay type: in vivo; details: up to 25 days of treatment
Description: as §1

[4] = test system: human ovarian carcinoma cells; experiment: Cytotoxicity (IC50 dose) of Ant, Ant-BH3 peptide and DOX; assay type: cell-based; details: Ovarian carcinoma cell; human ovarian carcinoma cells
Description: (§2) By way of example, the effectiveness of a BH3 peptide ([…] SEQ ID NO:1) to increase cell death by inducing the mitochondrial dysfunction leading to necrosis was measured. BH3 peptide was delivered into human ovarian carcinoma cells by the Antennapedia (Ant) internalization sequence (Arg-Gln-Ile-lys-[…] SEQ ID NO:2). Mitochondrial function was assessed by flow cytometry analysis using the lipophilic cationic fluorescent probe 5,5′,6,6′-tetrachloro-1,1′,3,3′-tetraethylbenzimidazolcarbo-cyanine iodide (JC-1). This probe exists as a monomer, and upon excitation at 490 nm, emits light at 527 nm resulting in green fluorescence. At high mitochondrial transmembrane potential, JC-1 forms multimers, known as J-aggregates, and emits light at 590 nm upon excitation at 490 nm resulting in red fluorescence. Therefore, the red/green fluorescence ratio measured by flow cytometry reflects the number of functioning mitochondria. […] The effect of the Ant-BH3 peptide on mitochondrial transmembrane potential was also determined.
Cytotoxicity. The cytotoxicity of drugs were assessed using a modified MTT (3-(4,5-dimethylthiazol-2-yl)-2,5-diphenyltetrazolium bromide) assay (Kunath, et al. (2000) Eur. J. Pharm. Biopharm 49:11-15; Minko, et al. (1998) J. Controlled Rel. 54:223-233; Minko, et al. (1999) J. Controlled Rel. 59:133-148; Minko, et al. (2002) Cancer Chemother. Pharmacol. 50:143-150). […]

[5] = test system: human ovarian carcinoma cells; experiment: Mitochondrial transmembrane potential, JC-1 probe, flow cytometry; assay type: cell-based; details: JC-1 red/green fluorescence ratio
Description: as §2, with “mitochondria. Ant alone was not toxic up to the highest possible concentration (1 mg/mL). In contrast, the combination of Ant with BH3 peptide led to a significant increase in toxicity of the peptide.” for “mitochondria.”

[6] = test system: genes encoding antiapoptotic members of the BCL-2 protein family; experiment: RT-PCR expression of genes encoding antiapoptotic members of the BCL-2 protein family; assay type: cell-based, human; details: 48 hours, IC50 dose of Ant-BH3 peptide; β2-m internal standard
Description: (§3) The influence of BH3 peptide, delivered by an Ant-BH3 fusion peptide, on the expression of proteins and genes encoding proapoptotic and antiapoptotic members of the BCL-2 protein family was determined. The expression of genes was measured by RT-PCR using β2-m as an internal standard.
(§4) Cell death signaling pathways. To characterize the cell death signaling pathways, the expression of p53, c-fos, c-jun, proapoptotic (BAD, BAX, BCL-G, BCL-W, BCL-XS, BID, BIK, BIM, BNIP 1-3, HARAKIR1, MSL-1S, NIX) and antiapoptotic (BCL-2, AVEN, BAG, BCL-XL, BFL, DAD1, MSL-1) members of BCL-2 family of proteins and genes encoding these proteins were measured by western blot analysis and RT-PCR, respectively using well-established methods known to those of skill in the art.
(§5) Gene expression. A combination of reverse transcription (RT) and polymerase chain reaction (PCR) was used for the analysis of gene expression as described (Minko, et al. (1999) J. Controlled Rel. 59:133-148). Briefly, total cellular RNA was isolated using an RNeasy kit (QIAGEN,™, Valencia, Calif.) and a […]™ micro-spin homogenizer (QIAGEN). First-strand cDNA was synthesized by Ready-To-Go You-Prime First-Strand Beads (Amersham Biosciences, Piscataway, N.J.) according to the manufacturer's instructions with 2 μg of total cellular RNA (from 1×10^7 cells) and 100 ng of random hexadeoxynucleotide primer (Amersham Biosciences, Piscataway, N.J.). After synthesis, the reaction mixture was diluted 1:3 with water and immediately subjected to PCR, which was carried out using GenAmp PCR System 2400 (Perkin Elmer Instruments, Shelton, Conn.). The pairs of primers used to amplify each type of cDNA and PCR regimes are well-known in the art (Kunath, et al. (2000) supra; Minko, et al. (2003) supra; Minko, et al. (2002) supra; Minko, et al. (1999) supra; Minko, et al. (2000) supra; Minko, et al. (2001) supra). PCR products were separated in 4% NUSIEVE® 3:1 RELIANT® agarose gels (BMA, East Rutherford, N.J.) in 1×TBE buffer (0.089 M Tris/Borate, 0.002 M EDTA, pH 8.3) by submarine electrophoresis. The gels were stained with ethidium bromide and digitally photographed. To calculate the size and amount of PCR products, a Low DNA Mass ladder (GibcoBRL, Carlsbad, Calif.) was used. β2-microglobulin was used as an internal standard and to confirm the efficacy of PCR (Kunath, et al. (2000) supra; Minko, et al. (2001) supra).

[7] = test system: A2780 human ovarian carcinoma cells; experiment: RT-PCR expression of caspases, APAF-1 and SMAC; assay type: cell-based
Description: The effect of the LHRH-BH3 peptide on apoptosis was analyzed by measuring transcriptional and translational levels and activity of human caspases. […] Active caspase 9, in turn, activates a cascade of downstream caspases, as evidenced by increased expression levels, which subsequently leads to induction of apoptosis.
Cystein aspartate-specific proteases (caspases). Three approaches were used to analyze the role of each of the human caspases in the apoptosis induction. First, the expression of genes encoding human caspases 1-10 and the Apoptotic Protease Activating Factor (APAF-1) and Second Mitochondria-Derived Activator of Caspase (SMAC) were studied by RT-PCR (Minko, et al. (1999) supra; Minko, et al. (2000) supra). […] Therefore, in addition to the measurement of the gene expression, the amount of active caspases and activity of the enzymes was measured. The amount of active caspases was estimated by western blot analysis. The activity of expressed caspases was measured using the Caspase Protease Assay kit (MBL International, Watertown, Mass.) or a colorimetric protease assay kit (PanVera, Madison, Wis.) (Minko, et al. (2001) supra). Cells were separately incubated with the conjugates for 48 hours. The assay colormetric assay is based on the spectrophotometric detection of the chromophore p-nitroanilide (pNA) after cleavage from the substrate, X-pNA. An increase in caspase activity was determined by comparing levels in cells exposed to conjugates to levels in cells of the untreated control incubated with saline.
as §5

[8] = test system: LHRHR-positive A2780 human ovarian carcinoma cells; experiment: Cytotoxicity, modified MTT assay; assay type: cell-based; details: LHRHR-positive cancer cells; up to the highest possible concentration
Description: (§6) In contrast, LHRH-BH3 peptide was not toxic in cancer cells not expressing LHRHR. Further, non-targeted Ant-BH3 peptide was toxic in both LHRHR-positive and negative cancer cells. […] Thus, the LHRH peptide specifically targets cancer cells expressing the LHRHR and facilitates the uptake of LHRH-conjugates.
Cytotoxicity of CPT, CPT-PEG, CPT-PEG-BH3, and CPT-PEG-LHRH conjugates and the combination of CPT-PEG-BH3 with CPT-PEG-LHRH conjugates was analyzed using a modified MTT assay (Minko, et al. (1998) supra) in sensitive A2780 and multidrug resistant A2780/AD human ovarian carcinoma cells.
(§7) Cytotoxicity. The cytotoxicity of drugs were assessed using a modified MTT (3-(4,5-dimethylthiazol-2-yl)-2,5-diphenyltetrazolium bromide) assay (Kunath, et al. (2000) Eur. J. Pharm. Biopharm 49:11-15; Minko, et al. (1998) J. Controlled Rel. 54:223-233; Minko, et al. (1999) J. Controlled Rel. 59:133-148; Minko, et al. (2002) Cancer Chemother. Pharmacol. 50:143-150). To measure cytotoxicity, cells were incubated in a 96-well microtiter plate with 45 different equivalent concentrations of CPT ranging from […] in a complex conjugate. Six wells were used for control cells. The duration of incubation was varied from 3 to 72 hours to find an optimal range of incubation time for each complex conjugate.

[9] = test system: genes encoding proapoptotic members of the BCL-2 protein family; experiment: RT-PCR expression of genes encoding proapoptotic members of the BCL-2 protein family; assay type: cell-based, human; details: 48 hours, IC50 dose of Ant-BH3 peptide; β2-m internal standard
Description: as §3, §4, §5

[10] = test system: cancer cells not expressing LHRHR; experiment: Cytotoxicity in LHRHR-negative cancer cells; assay type: cell-based
Description: as §6, §7

[11] = test system: A2780 human ovarian carcinoma cells; experiment: Expression of BCL-2, BCL-XL, SMAC, APAF-1, caspase 9 and caspase 3 genes after CPT conjugates; assay type: cell-based; details: 48-hour incubation
Description: The expression of genes encoding antiapoptotic members of the BCL-2 protein family (BCL-2 and BCL-XL), caspase activators (SMAC and APAF-1), caspase 9 (apoptosis inhibitor) and caspase 3 (apoptosis executor) as well as the activity of the caspases was measured after a 48-hour incubation of A2780 human ovarian carcinoma cells with CPT, CPT-PEG, CPT-PEG-BH3, or CPT-PEG-LHRH conjugates.
Gene expression. A combination of reverse transcription (RT) and polymerase chain reaction (PCR) was used for the analysis of gene expression as described (Minko, et al. (1999) J. Controlled Rel. 59:133-148). Briefly, total cellular RNA was isolated using an RNeasy kit (QIAGEN,™, Valencia, Calif.) and a […] ™ micro-spin homogenizer (QIAGEN). First-strand cDNA was synthesized by Ready-To-Go You-Prime First-Strand Beads (Amersham Biosciences, Piscataway, N.J.) according to the manufacturer's instructions with 2 μg of total cellular RNA (from 1×10^7 cells) and 100 ng of random hexadeoxynucleotide primer (Amersham Biosciences, Piscataway, N.J.). After synthesis, the reaction mixture was diluted 1:3 with water and immediately subjected to PCR, which was carried out using GenAmp PCR System 2400 (Perkin Elmer Instruments, Shelton, Conn.). […]

[12] = A2780, 48 hours, IC50 dose of peptide, ratio of band intensity to β2-m internal standard

Molecule: COc1cccc2c1C(=O)c1c(O)c3c(c(O)c1C2=O)C[C@@](O)(C(=O)CO)C[C@@H]3O[C@H]1C[C@H](N)[C@H](O)[C@H](C)O1 [DOX, doxorubicin]
- tissue accumulation [1]: significant amount of free DOX accumulation in healthy tissues
- cell response ([2]; cells that survived exposure to high DOX concentrations): overexpressed the BCL-2 gene and developed resistance to apoptosis
- cell response ([2]; low DOX concentrations): responded to the treatment by apoptosis
- tumor size [3]: decreased the tumor size
- IC50 [4]: 484 ± 36.4 nM

Molecule: RQIKIWFQNRRMKWKKMGQVGRQLAIIGDDINRRY [Ant-BH3]
- changes in mitochondrial membrane potential [5]: did not lead to statistically significant changes
- Expression, % of Control: AVEN [6]: 78 ± 2 % of Control
- Expression, % of Control: BAG [6]: 56 ± 5 % of Control
- Expression, % of Control: BCL-2 [6]: 66 ± 7 % of Control
- Expression, % of Control: BCL-W [6]: 97 ± 8 % of Control
- Expression, % of Control: BCL-XL [6]: 64 ± 3 % of Control
- Expression, % of Control: BFL [6]: 70 ± 2 % of Control
- Expression, % of Control: DAD-1 [6]: 99 ± 5 % of Control
- Expression, % of Control: MCL-1L [6]: 108 ± 8 % of Control
- Mean Gene Expression ± SD: APAF-1 [7, 12]: 78 ± 3
- Mean Gene Expression ± SD: Caspase 2 [7, 12]: 134 ± 5
- Mean Gene Expression ± SD: Caspase 3 [7, 12]: 60 ± 5
- Mean Gene Expression ± SD: Caspase 6 [7, 12]: 77 ± 5
- Mean Gene Expression ± SD: Caspase 7 [7, 12]: 88 ± 8
- Mean Gene Expression ± SD: Caspase 8 [7, 12]: 70 ± 6
- Mean Gene Expression ± SD: Caspase 9 [7, 12]: 126 ± 11
- Mean Gene Expression ± SD: Caspase 10 [7, 12]: 48 ± 3
- Mean Gene Expression ± SD: SMAC [7, 12]: 77 ± 2
- expression of APAF-1 and SMAC ([7]; A2780 cells): up-regulation
- toxicity [8]: toxic
- Expression, % of Control: BAD [9]: 90 ± 8 % of Control
- Expression, % of Control: BAX [9]: 91 ± 9 % of Control
- Expression, % of Control: BCL-G [9]: 87 ± 11 % of Control
- Expression, % of Control: BCL-XS [9]: 168 ± 11 % of Control
- Expression, % of Control: BID [9]: 99 ± 9 % of Control
- Expression, % of Control: BIK [9]: 511 ± 42 % of Control
- Expression, % of Control: BIM [9]: 114 ± 17 % of Control
- Expression, % of Control: BNIP-1 [9]: 93 ± 8 % of Control
- Expression, % of Control: BNIP-2 [9]: 173 ± 14 % of Control
- Expression, % of Control: BNIP-3 [9]: 69 ± 6 % of Control
- Expression, % of Control: HRK [9]: 88 ± 10 % of Control
- Expression, % of Control: MLS-1S [9]: 130 ± 11 % of Control
- Expression, % of Control: NIX [9]: 89 ± 10 % of Control
- toxicity [10]: toxic

Molecule: CC[C@@]1(O)C(=O)OCc2c1cc1n(c2=O)Cc2cc3ccccc3nc2-1 [CPT, camptothecin]
- activation of caspase-dependent apoptosis pathway and cellular antiapoptotic defense (gene expression) [11]: activated both caspase-dependent pathways of apoptosis and cellular antiapoptotic defense
